Measured values reported in PubChem BioAssay (NCI).
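Compound exposure: 48 hours, 5 concentrations, 96-well plates. At the GI50, growth is halved. TGI is the concentration that stops growth completely.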

Experiments:
Experiment in all cases: NCI tumour cell line growth inhibition, 48 h
HL-60(TB) leukemia = test system: HL-60(TB) leukemia
MOLT-4 leukemia = test system: MOLT-4 leukemia
DU-145 prostate = test system: DU-145 prostate
SNB-75 CNS = test system: SNB-75 CNS
CCRF-CEM leukemia = test system: CCRF-CEM leukemia
NCI/ADR-RES ovarian = test system: NCI/ADR-RES ovarian
SK-OV-3 ovarian = test system: SK-OV-3 ovarian
SW-620 colon = test system: SW-620 colon
SF-268 CNS = test system: SF-268 CNS
HCT-15 colon = test system: HCT-15 colon

Structure (SMILES)	GI50 (HL-60(TB) leukemia)	TGI (HL-60(TB) leukemia)	GI50 (MOLT-4 leukemia)	TGI (MOLT-4 leukemia)	GI50 (DU-145 prostate)	TGI (DU-145 prostate)	GI50 (SNB-75 CNS)	TGI (SNB-75 CNS)	GI50 (CCRF-CEM leukemia)	TGI (CCRF-CEM leukemia)	GI50 (NCI/ADR-RES ovarian)	TGI (NCI/ADR-RES ovarian)	GI50 (SK-OV-3 ovarian)	TGI (SK-OV-3 ovarian)	GI50 (SW-620 colon)	TGI (SW-620 colon)	GI50 (SF-268 CNS)	TGI (SF-268 CNS)	GI50 (HCT-15 colon)	TGI (HCT-15 colon)
CCN(CC)CCCCCCNc1cccc2cc(Br)cnc12	2 µM	4.65 µM	3.06 µM	12.1 µM	12.7 µM	26.4 µM	2.82 µM	9.17 µM	3.13 µM	11.2 µM	4.88 µM	20.3 µM	13.2 µM	26.8 µM	3.41 µM	14.7 µM	10.9 µM	27.5 µM	2.95 µM	10.9 µM
O=C(NCc1ccc(Cn2c(=O)sn(-c3ccccc3)c2=O)cc1)OCc1ccc2cccc(O)c2n1	1.24 µM	> 20.5 µM	0.785 µM	> 24.3 µM	1.08 µM	2.29 µM	0.783 µM	2.08 µM	0.359 µM	> 100 µM	1.7 µM	8.87 µM	5.96 µM	18.7 µM	0.301 µM	0.951 µM	1.55 µM	3.04 µM	0.298 µM	0.969 µM
O=C1Nc2ccccc2/C1=C1\CCc2cc(O)ccc21	6.65 µM	> 21.5 µM	12.2 µM	> 25 µM	11.4 µM	> 25 µM	8.06 µM	> 25 µM	7.19 µM	> 25 µM	7.65 µM	> 25 µM	8.5 µM	> 25 µM	8.05 µM	> 25 µM	10.1 µM	> 25 µM	5.26 µM	> 25 µM
COc1ccc(C(CC(=O)c2ccc3c(c2)OCO3)c2c(O)c3ccccc3oc2=O)cc1OC (stereo not drawn)	–	> 100 µM	–	> 100 µM	–	> 100 µM	–	> 100 µM	–	> 100 µM	–	> 100 µM	–	> 100 µM	–	> 100 µM	–	> 100 µM	–	> 100 µM
Nc1ccccc1O.O.O=C(O)C1[O][Sb][O]C1C(=O)O (stereo not drawn)	1.86 µM	10.6 µM	10.8 µM	> 100 µM	14.6 µM	27.8 µM	24.9 µM	40.5 µM	0.713 µM	–	28.6 µM	> 87.2 µM	88.3 µM	> 100 µM	4.48 µM	31.2 µM	17.5 µM	> 53.4 µM	19.9 µM	57.1 µM
CCC/C=C/C=C/C1CC(O)C(O)C(=O)C1CO (stereo not drawn)	–	> 100 µM	–	–	–	> 100 µM	–	> 100 µM	–	> 100 µM	–	> 100 µM	–	> 100 µM	–	> 100 µM	–	> 100 µM	–	> 100 µM
O=C(Nc1cc(Nc2ncccc2-c2ncnc3nc[nH]c23)ccc1F)c1cc(C(F)(F)F)cc(C(F)(F)F)c1	0.439 µM	8.44 µM	2.32 µM	6.67 µM	4.16 µM	> 10 µM	1.9 µM	7.15 µM	2.97 µM	> 10 µM	2.08 µM	7.32 µM	2.78 µM	9.19 µM	1.54 µM	> 10 µM	3.17 µM	> 10 µM	2.12 µM	5.67 µM
CO[C@H]1Nc2c(ccc(C)c2O)C(=O)N2C=C(/C=C/C(N)=O)C[C@@H]12	–	0.456 µM	–	6.29 µM	–	> 62 µM	–	0.0576 µM	–	> 50.6 µM	–	0.085 µM	–	3.72 µM	–	17.7 µM	–	0.411 µM	–	0.758 µM
N[C@H](CCC(=O)N[C@@H](Cc1c[nH]c2ccccc12)C(=O)O)C(=O)O	> 100 µM	> 100 µM	> 100 µM	> 100 µM	> 100 µM	> 100 µM	> 100 µM	> 100 µM	> 100 µM	> 100 µM	> 100 µM	> 100 µM	> 100 µM	> 100 µM	> 100 µM	> 100 µM	> 100 µM	> 100 µM	> 100 µM	> 100 µM
O=C(O)c1cccc(COc2ccc([N+](=O)[O-])cc2Cl)c1	58.5 µM	> 100 µM	–	–	> 100 µM	> 100 µM	> 100 µM	> 100 µM	> 100 µM	> 100 µM	> 100 µM	> 100 µM	> 100 µM	> 100 µM	> 100 µM	> 100 µM	7.71 µM	85.6 µM	> 100 µM	> 100 µM
ClCCN(CCCl)c1ccc(CNc2ccccc2)cc1	2.44 µM	54 µM	2.81 µM	> 100 µM	5.28 µM	> 100 µM	3.7 µM	57.4 µM	4.12 µM	> 100 µM	9.78 µM	> 100 µM	12 µM	> 100 µM	10.6 µM	> 100 µM	4.25 µM	> 100 µM	10.4 µM	> 100 µM
O=C(c1ccco1)c1c(C(F)(F)F)n([O-])c2ccc(C(F)(F)F)cc2[n+]1=O	0.0696 µM	0.31 µM	0.0912 µM	0.313 µM	0.5 µM	0.925 µM	0.576 µM	1.55 µM	0.207 µM	0.793 µM	0.257 µM	0.939 µM	1.12 µM	2.48 µM	0.159 µM	0.338 µM	0.266 µM	0.674 µM	0.291 µM	0.749 µM
COc1ccc(C(=O)c2cc(OC)c(OC)c(OC)c2)cc1OC	–	11.7 µM	–	> 100 µM	–	> 100 µM	–	> 100 µM	–	> 100 µM	–	> 100 µM	–	–	–	> 100 µM	–	> 100 µM	–	> 100 µM
COC(c1ccc(C(C)(C)C)cc1)(c1ccc(C(C)(C)C)cc1)c1ccc(C(C)(C)C)cc1	–	> 100 µM	–	> 100 µM	–	> 100 µM	–	> 100 µM	–	> 100 µM	–	> 100 µM	–	–	–	> 100 µM	–	> 100 µM	–	> 100 µM
O=C(/C(=C\c1c(-c2ccccc2)[nH]c2ccccc12)S(=O)(=O)c1ccccc1)c1ccccc1	4.98 µM	> 100 µM	–	–	> 100 µM	> 100 µM	10.1 µM	> 100 µM	> 100 µM	> 100 µM	> 100 µM	> 100 µM	7.63 µM	> 100 µM	–	–	> 100 µM	> 100 µM	–	–
